{"source": "patent US9908884B2", "about": "“EGFR inhibitors and methods of treating disorders” (priority 2009, dated 2018)", "key": {"[1]": {"details": "Phase I trial; cited from earlier work"}, "lung cancer patients": {"system": "lung cancer patients", "details": "all lung cancer patients, not selected for EGFR mutation; cited from earlier work"}, "T790M EGFR": {"molecular_target": "T790M EGFR (Homo sapiens, UniProt P00533, T790M)", "experiment": "Mass spectrometric analysis of T790M EGFR modification", "details": "MS/MS of peptic peptide 791-798", "source_text": "(A) Intact ESI mass spectra of the free and inhibitor bound. The raw m/z data are shown on the left and the transformed, mass only spectra shown on the right. The measured and theoretical molecular weights of the unmodified as well as modified version of each protein are indicated. In the transformed mass spectra, peaks corresponding to a phosphorylation are indicated. […] All the ions in these mass spectra have been converted to a single charge state.\nFor intact protein mass spectral analysis, the proteins T790M alone and with small molecules bound were injected onto a POROS 20 R2 protein trap and desalted with 0.05% trifluoroacetic acid (TFA) at a flow rate of 100 μL/min. The proteins were eluted into the mass spectrometer using a linear 15%-75% (v/v) acetonitrile gradient over 4 min at 50 μL/min using a Shimadzu HPLC system (LC-10ADvp). Intact protein analyses were performed on an LCT-Premier instrument (Waters Corp., Milford, Mass., USA) equipped with a standard electrospray source. The capillary voltage was 3.2 kV and the cone voltage of 35 V. Nitrogen was used as desolvation gas. A source temperature of 175° C. and a desolvation temperature of 80° C. were applied. The instrument was calibrated by infusing a solution of 500 fmol/μL myoglobin and the mass accuracy was less than 10 ppm. […]"}, "[2]": {"system": "H1975 (L858R/T790M) cells", "experiment": "EGFR signaling immunoblot in H1975 cells", "format": "cell-based", "details": "16 hours", "procedure": "All cell lines were maintained in RPMI 1640 (Cellgro; Mediatech Inc., Herndon, Calif.) supplemented with 10% FBS 100 units/mL penicillin, 100 […], and 2 mM glutamine.\nThe supernatant was used for subsequent procedures. […] Antibody binding was detected using an enhanced chemiluminescence system (New England Nuclear Life Science Products Inc.)."}}}
{"smiles": "CCOc1cc2ncc(C#N)c(Nc3ccc(OCc4ccccn4)c(Cl)c3)c2cc1NC(=O)/C=C/CN(C)C", "note": "[HKI-272]", "values": [{"measurement": "Cmax", "setting": "[1]", "value": "~200", "unit": "nM"}]}
{"smiles": "C#Cc1cccc(Nc2ncnc3cc(OCCOC)c(OCCOC)cc23)c1", "note": "[erlotinib]", "values": [{"measurement": "median time to tumor progression", "setting": "lung cancer patients", "value": "approximately 2 months"}]}
{"smiles": "C=CC(=O)Nc1cccc(Oc2nc(Nc3ccc(N4CCN(C)CC4)cc3)ncc2Cl)c1", "note": "[WZ3146, N-(3-(5-chloro-2-(4-(4-methylpiperazin-1-yl)phenylamino)pyrimidin-4-yloxy)phenyl)acrylamide]", "values": [{"measurement": "site of covalent attachment", "setting": "T790M EGFR", "value": "Cys797 was the site of covalent attachment"}, {"measurement": "inhibition of EGFR, Akt and ERK 1/2 phosphorylation", "setting": "[2]", "value": "significantly lower concentrations compared with CL-387,785"}]}
{"smiles": "COc1cc2ncnc(Nc3ccc(F)c(Cl)c3)c2cc1OCCCN1CCOCC1", "note": "[gefitinib]", "values": [{"measurement": "median time to tumor progression", "setting": "lung cancer patients", "value": "approximately 2 months"}]}
